Source: patent publication US6825340B2, “Methods and reagents for inactivating ribonucleases” (Ambion, Inc., priority 1998, dated 2004)

How the values were obtained:
[1] = biological target: T1, RNase A (Bos taurus, UniProt P61823); test: RNase A inactivation, mouse total RNA on agarose formaldehyde gel; type: biochemical
T1 sequence (P61823 27-150): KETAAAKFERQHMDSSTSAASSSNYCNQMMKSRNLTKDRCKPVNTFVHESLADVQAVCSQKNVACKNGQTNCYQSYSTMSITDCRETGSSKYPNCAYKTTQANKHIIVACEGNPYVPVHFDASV
Protocol: The non-isotopic assay uses total RNA isolated from mouse as the substrate for the RNase mixture. […] A quantity of 4 μg of total RNA isolated from mouse liver or brain was dissolved in an aqueous solution, usually water or 1 mM sodium citrate (pH 6.6). The treated ribonuclease sample was added to the total RNA and then incubated at 37° C. for 1 or 16 hours, depending on the sensitivity desired for the assay. After incubation, the RNA was fractionated in a formaldehyde 1% agarose gel. The RNA was detected by staining with ethidium bromide and then illuminating the gel with ultraviolet light. The RNA fluoresces in the gel. Untreated total RNA was also fractionated as a control with the test samples for comparative purposes. […] Intact total RNA has two major bands produced by the 28S and 18S ribosomal RNA. […] RNase A, at 200 ng/ml instead of 10 μg/ml, was treated with or without 4 mM DTT in Boshes' solution A at 4° C. for 20 minutes. RNase A activity was then tested by incubating mouse liver total RNA with the treated RNase A at 37° C. for 60 minutes. The mouse RNA was then fractionated by electrophoresis in a 1% agarose formaldehyde gel. […] RNase A was diluted to 154 ng/ml in 1 mM sodium citrate (pH 6.4) or in Boshes' (1970) buffer A. DTT was added to the samples to 4 mM or 20 mM and then incubated at 4° C. or 60° C. for 20 minutes.

[2] = system: RNase mixture (RNase A, RNase 1, RNase T1); test: Isotopic RNase inactivation assay (radioactive RNA probe, acrylamide gel); type: biochemical, human, E. coli and a fungus; details: 20 mM DTT, 60° C. for 20 minutes
Protocol: FIG. 1. DTT-heat inactivation of different RNase concentrations. The RNase mixture was made to different concentrations in 20 mM DTT: 1 mM sodium citrate (pH 6.4). The RNase samples were incubated at 60° C. for 20 minutes. A radioactive RNA probe was added to the treated RNase samples, incubated at 37° C. for 16 hours, fractionated in a denaturing 5% acrylamide gel and exposed to x-ray film.
The inventors routinely perform assays on RNA designed to assess RNase activity in a sample. Two different assays are typically used for the detection of ribonuclease activity, non-isotopic and isotopic. Each assay generates similar data with regard to the sensitivity of detection. In both assays, the inactivation process is typically performed on a mixture of three different ribonucleases: RNase A, RNase 1, and RNase T1. Each ribonuclease is purified from a different species: […], E. coli and a fungus, respectively. The three RNases are very different from each other in their origin, substrate specificity and protein sequence. In this way, the inactivation process can test three completely different but well characterized ribonucleases. The standard stock RNase mixture employed in the following examples is prepared by combining 1 μl RNase 1 (100 U/μl; Ambion), 1 μl RNase cocktail (RNase A, 0.5 U/μl; RNase T1, 20 U/μl, Ambion) and 98 μl water. […]

[3] = biological target: DNase I (Bos taurus, UniProt P00639); test: DNase I activity after reducing/heat treatment, plasmid DNA degradation; type: biochemical; details: 20 mM reducing reagent in water; DNase I 0.4 units/μl; 60° C. for 20 minutes
Protocol: DNase I is commonly used to degrade contaminating DNA in RNA preparations. To test whether the inactivation method affected DNase I activity, DNase I (final concentration of 0.4 units/μl) was added to water containing 20 mM DTT, DTE or β-mercaptoethanol. The mixture was incubated at 60° C. for 20 minutes. After the heat treatment, the DNase I activity was tested by incubating the treated DNase I with plasmid DNA (0.2 μg/μl ) at 37° C. for one hour followed by electrophoresis in a 1% agarose gel.

[4] = pH 7.0; cited from earlier work

Sequence of DNase I (P00639 23-282): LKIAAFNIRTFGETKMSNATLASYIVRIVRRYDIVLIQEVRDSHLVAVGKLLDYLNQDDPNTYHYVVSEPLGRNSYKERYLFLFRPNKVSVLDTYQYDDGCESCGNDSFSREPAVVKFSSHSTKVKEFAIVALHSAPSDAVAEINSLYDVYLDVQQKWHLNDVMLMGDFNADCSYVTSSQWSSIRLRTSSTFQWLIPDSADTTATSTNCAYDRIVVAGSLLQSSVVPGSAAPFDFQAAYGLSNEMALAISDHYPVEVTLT

With O[C@H](CS)[C@H](O)CS [DTT, dithiothreitol] the “RNase A inactivation” value ([1]; RNase A 154 ng/ml, 4 mM DTT, 4° C. for 20 minutes) was “not inactivated”, the “RNase A inactivation” value ([1]; RNase A 154 ng/ml, 4 mM DTT, 60° C. for 20 minutes) was “completely inactivated” and the “RNase A inactivation” value ([1]; RNase A 154 ng/ml, 20 mM DTT, 4° C. for 20 minutes) was “not inactivated”. For the same compound, the “RNase A inactivation” value ([1]; RNase A 154 ng/ml, 20 mM DTT, 60° C. for 20 minutes) was “completely inactivated”, the “RNase A inactivation” value ([1]; RNase A 200 ng/ml, 4 mM DTT, Boshes' solution A, 4° C. for 20 minutes) was “not inactivated” and the “RNase A inactivation” value ([1]; RNase A, 20 mM DTT, 60° C. for 20 minutes) was “completely inactivated”. The “concentration of RNase mixture completely inactivated” value ([2]; 1 mM sodium citrate (pH 6.4), isotopic assay) was “up to 200 ng/ml”, the “RNase inactivation in different buffers and solutions” value ([2]; RNase mixture 200 ng/ml, 17 solutions, isotopic) was “inactivated RNase activity in all of buffers and solutions tested” and the “DNase I activity after reducing/heat treatment” value [3] was “not affected”. The redox potential [4] was −0.33 volts.
